From ChEMBL document CHEMBL4400521, “Plasma kallikrein cleaves and inactivates apelin-17: Palmitoyl- and PEG-extended apelin-17 analogs as metabolically stable blood pressure-lowering agents” (Eur J Med Chem, 2019)
Non-standard residues stand in square brackets, D forms with d. Residues, ends and D or L forms follow the SMILES beside them. *: point of attachment. Phe(4-Br) = N[C@@H](Cc1ccc(Br)cc1)C(=O)O; Fmoc = O=C(OCC1c2ccccc2-c2ccccc21)*; PEG6 = NCCOCCOCCOCCOCCOCCOCCC(=O)O; Palmitoyl = CCCCCCCCCCCCCCCC(=O)*; NMeL = CN[C@@H](CC(C)C)C(=O)O; Nle = CCCC[C@H](N)C(=O)O; Aib = CC(C)(N)C(=O)O

Columns and labels:
Neprilysin = Neprilysin (Homo sapiens, UniProt P08473); experiment: Substrate activity at recombinant human NEP (Tyr52 to Trp750 residues) expressed in HEK293 cells assessed as enzyme-mediated degradation onset time at 1 mM by MALDI-TOF MS analysis; type: ADME, cell-based; conditions: hek293, 1000 µM
[1] = biological target: T1, Plasma kallikrein (KLKB1) (Homo sapiens, UniProt P03952); experiment: (§1) Substrate activity at recombinant human C-terminal His6-tagged KLKB1 (Pro19 to Ser262 residues) expressed in mammalian expression system assessed as compound half life by LC-MS analysis; type: ADME
Mus musculus = experiment: Blood pressure lowering activity in anesthetized mouse assessed as change in mean arterial blood pressure at 1.4 uM/kg, iv; type: functional
Neprilysin (NEP) = Neprilysin (NEP) (Homo sapiens, UniProt P08473); experiment: Substrate activity at recombinant human NEP (Tyr52 to Trp750 residues) expressed in HEK293 cells assessed as compound half life by LC-MS analysis; type: ADME, cell-based
Plasma kallikrein [2] = biological target: T2, Plasma kallikrein (Homo sapiens, UniProt P03952); experiment: Substrate activity at recombinant human C-terminal His6-tagged KLKB1 (Pro19 to Ser262 residues) expressed in mammalian expression system assessed as enzyme-mediated degradation onset time at 1 mM by MALDI-TOF MS analysis; type: ADME; conditions: 1000 µM
[3] = biological target: T1, Plasma kallikrein (KLKB1); experiment: Substrate activity at KLKB1 in human plasma assessed as compound half life by LC-MS analysis; type: ADME, cell-free
Apelin receptor [4] = biological target: T3, Apelin receptor (Homo sapiens, UniProt P35414); experiment: Activation of recombinant human APJ expressed in rat Chem5 cells co-expressing Galpha15 by Calcium 6-QF dye based fluorescence assay; type: functional, cell-based
T3 sequence (P35414 whole entry): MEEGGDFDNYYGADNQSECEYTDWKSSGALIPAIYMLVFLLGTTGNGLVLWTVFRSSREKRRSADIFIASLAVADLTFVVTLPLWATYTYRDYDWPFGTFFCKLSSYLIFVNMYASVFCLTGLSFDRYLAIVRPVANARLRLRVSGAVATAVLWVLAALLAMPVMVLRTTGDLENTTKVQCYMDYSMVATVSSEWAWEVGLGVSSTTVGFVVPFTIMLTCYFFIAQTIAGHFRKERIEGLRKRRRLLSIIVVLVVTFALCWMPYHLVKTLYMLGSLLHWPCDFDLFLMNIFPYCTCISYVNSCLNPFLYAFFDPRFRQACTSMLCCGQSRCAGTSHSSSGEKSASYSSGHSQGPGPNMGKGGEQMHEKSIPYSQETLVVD

Plasma kallikrein [5] = biological target: T2, Plasma kallikrein; experiment: as §1; type: ADME
Apelin receptor [6] = biological target: T4, Apelin receptor (Rattus norvegicus, UniProt Q9JHG3); experiment: Displacement of [125I]-(Glp1,Nle11,[…])apelin-13 from recombinant rat EGFP-fused apelin receptor expressed in CHO cell membrane measured after 3 hrs; type: cell membranes
T4 sequence (Q9JHG3 whole entry): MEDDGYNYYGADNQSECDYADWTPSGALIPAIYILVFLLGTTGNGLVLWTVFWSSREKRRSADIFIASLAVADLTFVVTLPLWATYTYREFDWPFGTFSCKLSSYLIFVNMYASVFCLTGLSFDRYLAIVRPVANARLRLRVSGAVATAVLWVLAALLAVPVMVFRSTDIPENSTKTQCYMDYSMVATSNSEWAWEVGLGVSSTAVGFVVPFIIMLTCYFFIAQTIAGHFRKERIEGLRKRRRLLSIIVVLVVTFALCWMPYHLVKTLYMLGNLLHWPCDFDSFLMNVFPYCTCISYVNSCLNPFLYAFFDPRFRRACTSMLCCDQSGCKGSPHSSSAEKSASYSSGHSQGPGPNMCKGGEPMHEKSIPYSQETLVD

Plasma kallikrein [7] = biological target: T2, Plasma kallikrein; experiment: Substrate activity at recombinant human C-terminal His6-tagged KLKB1 (Pro19 to Ser262 residues) expressed in mammalian expression system assessed as Vmax measured after 30 to 60 mins by LC-MS analysis; type: ADME
Plasma kallikrein [8] = biological target: T2, Plasma kallikrein; experiment: Substrate activity at human KLKB1 assessed as ratio of Kcat to Km by spectrofluorimetric method; type: ADME
[9] = biological target: T1, Plasma kallikrein (KLKB1); experiment: Substrate activity at recombinant human C-terminal His6-tagged KLKB1 (Pro19 to Ser262 residues) expressed in mammalian expression system assessed as Km measured after 30 to 60 mins by LC-MS analysis; type: ADME
Plasma kallikrein [10] = biological target: T2, Plasma kallikrein; experiment: Substrate activity at recombinant human C-terminal His6-tagged KLKB1 (Pro19 to Ser262 residues) expressed in mammalian expression system assessed as Kcat measured after 30 to 60 mins by LC-MS analysis; type: ADME

T1 sequence (P03952 20-390 limits assumed): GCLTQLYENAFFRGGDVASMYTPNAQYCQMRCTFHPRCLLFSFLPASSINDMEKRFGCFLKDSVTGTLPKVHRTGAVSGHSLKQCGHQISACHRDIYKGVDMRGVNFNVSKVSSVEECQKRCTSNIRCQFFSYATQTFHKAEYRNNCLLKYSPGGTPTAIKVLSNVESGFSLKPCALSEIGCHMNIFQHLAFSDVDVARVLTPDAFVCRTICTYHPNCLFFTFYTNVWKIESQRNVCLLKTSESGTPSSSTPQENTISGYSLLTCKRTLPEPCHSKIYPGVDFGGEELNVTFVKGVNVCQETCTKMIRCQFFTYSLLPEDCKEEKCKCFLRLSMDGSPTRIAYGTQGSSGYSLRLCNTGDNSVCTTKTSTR
T1 sequence (P03952 391-638 limits assumed): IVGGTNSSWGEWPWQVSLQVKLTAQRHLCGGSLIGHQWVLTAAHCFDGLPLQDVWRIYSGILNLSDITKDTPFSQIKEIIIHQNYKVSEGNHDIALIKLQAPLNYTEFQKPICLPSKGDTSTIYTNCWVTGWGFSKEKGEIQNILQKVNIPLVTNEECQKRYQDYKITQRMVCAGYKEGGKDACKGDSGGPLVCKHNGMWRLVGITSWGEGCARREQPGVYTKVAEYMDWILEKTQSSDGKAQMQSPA
T2 sequence (P03952 20-390 limits assumed): as the sequence (P03952 20-390 limits assumed) above
T2 sequence (P03952 391-638 limits assumed): as the sequence (P03952 391-638 limits assumed) above
Sequence of Neprilysin (P08473 whole entry): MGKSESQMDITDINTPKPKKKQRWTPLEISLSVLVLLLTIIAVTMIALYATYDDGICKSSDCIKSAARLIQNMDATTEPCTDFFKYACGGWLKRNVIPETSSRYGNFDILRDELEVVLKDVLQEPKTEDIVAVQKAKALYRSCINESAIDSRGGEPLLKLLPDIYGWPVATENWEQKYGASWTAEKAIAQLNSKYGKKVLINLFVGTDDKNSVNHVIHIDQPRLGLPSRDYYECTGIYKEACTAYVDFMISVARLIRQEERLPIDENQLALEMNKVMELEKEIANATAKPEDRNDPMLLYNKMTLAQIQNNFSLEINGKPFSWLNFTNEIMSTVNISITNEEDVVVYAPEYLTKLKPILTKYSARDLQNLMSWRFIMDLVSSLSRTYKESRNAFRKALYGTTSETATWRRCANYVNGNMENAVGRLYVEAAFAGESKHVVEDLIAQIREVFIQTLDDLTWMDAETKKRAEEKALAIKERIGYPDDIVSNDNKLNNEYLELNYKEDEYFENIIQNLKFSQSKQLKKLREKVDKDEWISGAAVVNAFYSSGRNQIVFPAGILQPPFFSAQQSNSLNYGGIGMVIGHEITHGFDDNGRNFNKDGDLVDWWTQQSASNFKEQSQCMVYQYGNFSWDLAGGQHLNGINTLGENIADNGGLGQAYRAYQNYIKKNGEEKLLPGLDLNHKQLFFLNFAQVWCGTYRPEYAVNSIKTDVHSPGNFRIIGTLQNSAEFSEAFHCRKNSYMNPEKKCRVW
Sequence of Neprilysin (NEP) (P08473 whole entry): as above

Molecule | Time (Neprilysin) [h] | half-life [1] [h] | half-life (Neprilysin (NEP)) [h] | Time (Plasma kallikrein [2]) [h] | half-life [3] [h] | t1/2 (Plasma kallikrein [5]) [h] | IC50 (Apelin receptor [6]) [nM] | Vmax (Plasma kallikrein [7]) [µmol/min] | Kcat/Km (Plasma kallikrein [8]) [×10⁴ /Ms] | Km [9] [µM] | Kcat (Plasma kallikrein [10]) [s⁻¹] | Activity (Mus musculus) [mmHg] | EC50 (Apelin receptor [4]) [nM]
CCCC[C@H](NC(=O)[C@@H]1CCCN1C(=O)CNC(=O)[C@H](CCCCN)NC(=O)[C@H](Cc1c[nH]cn1)NC(=O)[C@H](CO)NC(=O)[C@H](CC(C)C)NC(=O)[C@H](CCCNC(=N)N)NC(=O)[C@@H]1CCCN1C(=O)[C@H](CCCNC(=N)N)NC(=O)[C@H](CCC(N)=O)NC(=O)[C@H](CCCNC(=N)N)NC(=O)[C@H](CCCNC(=N)N)NC(=O)[C@H](Cc1ccccc1)NC(=O)[C@@H](N)CCCCN)C(=O)NC(C)(C)C(=O)N[C@@H](Cc1ccc(Br)cc1)C(=O)O (H-KFRRQRPRLSHKGP[Nle][Aib][Phe(4-Br)]-OH) | < 1 | – | 0.7 | < 0.5 | 0.3 | 1 | – | – | – | – | – | -32 | 4.1
CCCC[C@H](NC(=O)[C@@H]1CCCN1C(=O)CNC(=O)[C@H](CCCCN)NC(=O)[C@H](Cc1cnc[nH]1)NC(=O)[C@H](CO)NC(=O)[C@H](CC(C)C)N(C)C(=O)[C@H](CCCNC(=N)N)NC(=O)[C@@H]1CCCN1C(=O)[C@H](CCCNC(=N)N)NC(=O)[C@H](CCC(N)=O)NC(=O)[C@H](CCCNC(=N)N)NC(=O)[C@H](CCCNC(=N)N)NC(=O)[C@H](Cc1ccccc1)NC(=O)[C@H](CCCCN)NC(=O)CCOCCOCCOCCOCCOCCOCCNC(=O)OCC1c2ccccc2-c2ccccc21)C(=O)NC(C)(C)C(=O)N[C@@H](Cc1ccc(Br)cc1)C(=O)O ({Fmoc-PEG6}-KFRRQRPR[NMeL]SHKGP[Nle][Aib][Phe(4-Br)]-OH) | > 36 | > 30 | – | 2 | 27 | – | – | – | – | – | – | -53 | 2.5
CCCC[C@H](NC(=O)[C@@H]1CCCN1C(=O)CNC(=O)[C@H](CCCCN)NC(=O)[C@H](Cc1cnc[nH]1)NC(=O)[C@H](CO)NC(=O)[C@H](CC(C)C)N(C)C(=O)[C@H](CCCNC(=N)N)NC(=O)[C@@H]1CCCN1C(=O)[C@H](CCCNC(=N)N)NC(=O)[C@H](CCC(N)=O)NC(=O)[C@@H](N)CCCNC(=N)N)C(=O)NC(C)(C)C(=O)N[C@@H](Cc1ccc(Br)cc1)C(=O)O (H-RQRPR[NMeL]SHKGP[Nle][Aib][Phe(4-Br)]-OH) | – | – | – | – | – | – | – | – | – | – | – | -15 | –
CCCC[C@H](NC(=O)[C@@H]1CCCN1C(=O)CNC(=O)[C@H](CCCCN)NC(=O)[C@H](Cc1cnc[nH]1)NC(=O)[C@H](CO)NC(=O)[C@H](CC(C)C)NC(=O)[C@H](CCCNC(=N)N)NC(=O)[C@@H]1CCCN1C(=O)[C@H](CCCNC(=N)N)NC(=O)[C@H](CCC(N)=O)NC(=O)[C@H](CCCNC(=N)N)NC(=O)[C@H](CCCNC(=N)N)NC(=O)[C@H](Cc1ccccc1)NC(=O)[C@H](CCCCN)NC(=O)CCOCCOCCOCCOCCOCCOCCNC(=O)OCC1c2ccccc2-c2ccccc21)C(=O)NC(C)(C)C(=O)N[C@@H](Cc1ccc(Br)cc1)C(=O)O ({Fmoc-PEG6}-KFRRQRPRLSHKGP[Nle][Aib][Phe(4-Br)]-OH) | 12 | > 30 | – | 1 | 18 | – | – | – | – | – | – | -48 | 6.3

More lines, main results first:

Time (Neprilysin) [h] | half-life [1] [h] | half-life (Neprilysin (NEP)) [h] | Time (Plasma kallikrein [2]) [h] | half-life [3] [h] | t1/2 (Plasma kallikrein [5]) [h] | IC50 (Apelin receptor [6]) [nM] | Vmax (Plasma kallikrein [7]) [µmol/min] | Kcat/Km (Plasma kallikrein [8]) [×10⁴ /Ms] | Km [9] [µM] | Kcat (Plasma kallikrein [10]) [s⁻¹] | Molecule | Activity (Mus musculus) [mmHg] | EC50 (Apelin receptor [4]) [nM]
1 | 1.5 | 1 | 1 | 4.5 | – | – | – | – | – | – | CCCCCCCCCCCCCCCC(=O)N[C@@H](CCCCN)C(=O)N[C@@H](Cc1ccccc1)C(=O)N[C@@H](CCCNC(=N)N)C(=O)N[C@@H](CCCNC(=N)N)C(=O)N[C@@H](CCC(N)=O)C(=O)N[C@@H](CCCNC(=N)N)C(=O)N1CCC[C@H]1C(=O)N[C@@H](CCCNC(=N)N)C(=O)N[C@@H](CC(C)C)C(=O)N[C@@H](CO)C(=O)N[C@@H](Cc1cnc[nH]1)C(=O)N[C@@H](CCCCN)C(=O)NCC(=O)N1CCC[C@H]1C(=O)N[C@@H](CCCC)C(=O)NC(C)(C)C(=O)N[C@@H](Cc1ccc(Br)cc1)C(=O)O (Palmitoyl-KFRRQRPRLSHKGP[Nle][Aib][Phe(4-Br)]-OH) | -41 | –
– | > 30 | 0.9 | – | 1.2 | – | – | – | – | – | – | CCCC[C@H](NC(=O)[C@@H]1CCCN1C(=O)CNC(=O)[C@H](CCCCN)NC(=O)[C@H](Cc1c[nH]cn1)NC(=O)[C@H](CO)NC(=O)[C@H](CC(C)C)N(C)C(=O)[C@H](CCCNC(=N)N)NC(=O)[C@@H]1CCCN1C(=O)[C@H](CCCNC(=N)N)NC(=O)[C@H](CCC(N)=O)NC(=O)[C@H](CCCNC(=N)N)NC(=O)[C@H](CCCNC(=N)N)NC(=O)[C@H](Cc1ccccc1)NC(=O)[C@@H](N)CCCCN)C(=O)NC(C)(C)C(=O)N[C@@H](Cc1ccc(Br)cc1)C(=O)O (H-KFRRQRPR[NMeL]SHKGP[Nle][Aib][Phe(4-Br)]-OH) | -36 | 4.9
> 36 | > 30 | 2.1 | 2 | 20.5 | – | – | – | – | – | – | CCCCCCCCCCCCCCCC(=O)N[C@@H](CCCCN)C(=O)N[C@@H](Cc1ccccc1)C(=O)N[C@@H](CCCNC(=N)N)C(=O)N[C@@H](CCCNC(=N)N)C(=O)N[C@@H](CCC(N)=O)C(=O)N[C@@H](CCCNC(=N)N)C(=O)N1CCC[C@H]1C(=O)N[C@@H](CCCNC(=N)N)C(=O)N(C)[C@@H](CC(C)C)C(=O)N[C@@H](CO)C(=O)N[C@@H](Cc1cnc[nH]1)C(=O)N[C@@H](CCCCN)C(=O)NCC(=O)N1CCC[C@H]1C(=O)N[C@@H](CCCC)C(=O)NC(C)(C)C(=O)N[C@@H](Cc1ccc(Br)cc1)C(=O)O (Palmitoyl-KFRRQRPR[NMeL]SHKGP[Nle][Aib][Phe(4-Br)]-OH) | -12 | –
< 0.5 | 0.4 | 0.4 | < 0.5 | 0.02 | – | 0.025 | 2.947 | – | – | – | CSCC[C@H](NC(=O)[C@@H]1CCCN1C(=O)CNC(=O)[C@H](CCCCN)NC(=O)[C@H](Cc1cnc[nH]1)NC(=O)[C@H](CO)NC(=O)[C@H](CC(C)C)NC(=O)[C@H](CCCNC(=N)N)NC(=O)[C@@H]1CCCN1C(=O)[C@H](CCCNC(=N)N)NC(=O)[C@H](CCC(N)=O)NC(=O)[C@H](CCCNC(=N)N)NC(=O)[C@H](CCCNC(=N)N)NC(=O)[C@H](Cc1ccccc1)NC(=O)[C@@H](N)CCCCN)C(=O)N1CCC[C@H]1C(=O)N[C@@H](Cc1ccccc1)C(=O)O | -20 | –
– | – | – | – | – | – | – | – | 0.4 | 2.4 | 0.001 | H-SLSSMTRVVGG-OH | – | –
> 36 | – | – | – | – | – | – | – | – | – | – | CCCC[C@H](NC(=O)[C@@H]1CCCN1C(=O)CNC(=O)[C@H](CCCCN)NC(=O)[C@H](Cc1cnc[nH]1)NC(=O)[C@H](CO)NC(=O)[C@H](CC(C)C)NC(=O)[C@H](CCCNC(=N)N)NC(=O)[C@@H]1CCCN1C(=O)[C@H](CCCNC(=N)N)NC(=O)[C@H](CCC(N)=O)NC(=O)[C@@H](N)CCCNC(=N)N)C(=O)NC(C)(C)C(=O)N[C@@H](Cc1ccc(Br)cc1)C(=O)O (H-RQRPRLSHKGP[Nle][Aib][Phe(4-Br)]-OH) | 3 | –
